Legend:
[1] = system: Calu-6 tumour xenograft; experiment: Calu-6 tumour xenograft, in vivo solid tumour model; settings: once-daily oral, 28 days
[2] = molecular target: stem cell factor receptor tyrosine kinase (SCF RTK, c-kit) (Homo sapiens, UniProt P10721); experiment: inhibition of c-kit; format: biochemical
[3] = system: MG63 cells; settings: MG63 cells stimulated by PDGF-AA; read-out: IC50, PDGFR-α dependent cellular proliferation; cited from earlier work
[4] = system: VEGF-stimulated endothelial cell proliferation (HUVEC); experiment: HUVEC assay, VEGF-stimulated endothelial cell proliferation; format: cell-based; settings: Homo sapiens
[5] = system: basal endothelial cell proliferation (HUVEC); experiment: HUVEC assay, basal endothelial cell proliferation; format: cell-based; settings: Homo sapiens, no VEGF stimulation

Chain of stem cell factor receptor tyrosine kinase (SCF RTK, c-kit) (P10721 26-976): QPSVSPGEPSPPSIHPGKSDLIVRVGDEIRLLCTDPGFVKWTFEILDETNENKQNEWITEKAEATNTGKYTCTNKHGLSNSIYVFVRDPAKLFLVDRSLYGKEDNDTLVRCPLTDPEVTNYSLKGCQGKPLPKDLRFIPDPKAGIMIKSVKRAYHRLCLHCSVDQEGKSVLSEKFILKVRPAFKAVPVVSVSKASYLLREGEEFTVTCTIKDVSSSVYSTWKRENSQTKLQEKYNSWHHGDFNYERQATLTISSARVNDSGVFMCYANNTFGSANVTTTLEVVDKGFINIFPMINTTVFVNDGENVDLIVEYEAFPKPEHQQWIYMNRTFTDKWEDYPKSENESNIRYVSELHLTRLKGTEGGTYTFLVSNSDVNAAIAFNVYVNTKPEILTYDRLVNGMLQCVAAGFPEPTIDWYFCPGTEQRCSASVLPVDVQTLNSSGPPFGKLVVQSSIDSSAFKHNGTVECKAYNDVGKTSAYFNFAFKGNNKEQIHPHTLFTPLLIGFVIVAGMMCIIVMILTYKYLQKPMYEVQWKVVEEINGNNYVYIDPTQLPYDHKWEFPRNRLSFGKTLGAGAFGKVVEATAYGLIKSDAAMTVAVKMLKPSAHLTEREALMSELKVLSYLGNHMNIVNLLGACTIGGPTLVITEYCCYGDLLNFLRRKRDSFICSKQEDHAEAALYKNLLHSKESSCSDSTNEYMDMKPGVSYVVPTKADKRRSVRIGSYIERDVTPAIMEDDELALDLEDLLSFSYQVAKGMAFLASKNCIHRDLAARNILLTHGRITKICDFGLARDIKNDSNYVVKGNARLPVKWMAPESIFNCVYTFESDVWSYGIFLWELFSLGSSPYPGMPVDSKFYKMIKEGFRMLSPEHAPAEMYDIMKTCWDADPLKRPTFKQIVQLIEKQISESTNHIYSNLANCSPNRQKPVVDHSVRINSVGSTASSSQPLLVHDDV

COc1cc2c(Oc3ccc4[nH]c(C)cc4c3F)ncnc2cc1OCCCN1CCCC1 [AZD2171, 4-(4-fluoro-2-methyl-1H-indol-5-yloxy)-6-methoxy-7-(3-(pyrrolidin-1-yl)propoxy)quinazoline]
inhibition of Calu-6 tumour xenograft growth ([1]; 1.5 mg/kg/day, P<0.01): 49%
inhibition of Calu-6 tumour xenograft growth ([1]; 3 mg/kg/day, P<0.0001): 69%
inhibition of Calu-6 tumour xenograft growth ([1]; 6 mg/kg/day, P<0.0001): 91%
inhibition of c-kit [2]: inhibits c-kit
IC50 [3]: 0.04 µM
IC50 [4]: 0.0004 ± 0.0002 µM
IC50 [5]: > 0.5 µM
